Measurements reported in patent US20240109937A1, “BINDING PEPTIDES AND USES THEREOF” (The Johns Hopkins University, priority 2021, published 2024).

Experiments:
PPIA = PPIA (Homo sapiens, UniProt P62937); conditions: read-out: KD, affinity to PPIA-binding; cited from earlier work
HMGB1 = HMGB1 cytosolic/nuclear levels in ISO/Ca2+-treated ES-CMs; assay type: cell-based, mouse; conditions: ISO/Ca2+-treated Dsg2^mut/mut ES-CMs, 7 days, peptide
Method: Mouse embryonic stem cells (ESs) were maintained and differentiated, and the absence of mycoplasma contamination was confirmed prior to experimental studies. Briefly, mouse ESs from both WT and Dsg2^mut/mut mice were derived from E3.5 embryos and maintained on gelatin-coated dishes in maintenance medium (Glasgow minimum essential medium supplemented with 10% fetal bovine serum and 3 μM Chir99021 and 1 μM PD98059 or 1000 U/ml ESGRO; Millipore), Glutamax, sodium pyruvate, and MEM non-essential amino acids (Thermo Fisher Scientific). For cardiomyocyte (CM) differentiation, ESs were plated in IMDM/Ham's F12 (Cellgro, at 3:1) supplemented with N2, B27, penicillin/streptomycin, 2 mM GlutaMAX, 0.05% BSA, 5 ng/ml L-ascorbic acid (Sigma-Aldrich), and α-monothioglycerol (MTG; Sigma-Aldrich) at a final density of 100,000 cells/ml to allow spheroid formation. After 48 hours, embryoid bodies were collected and transferred to ultra-low attachment plastic surface and induced for 40 hours with Activin A and Bmp4 (R&D Systems). Cells were then dissociated and plated as monolayers for 48 hours in the presence of 10 μM XAV to allow cardiomyocyte differentiation. The resulting ES-CMs were cultured 45 days before experimental procedures were performed. […]

tAIF = assay: Nuclear import and localization of tAIF in ISO/Ca2+-treated ES-CMs; assay type: cell-based, mouse; conditions: ISO/Ca2+-treated Dsg2^mut/mut ES-CMs, 7 days
Method: Mouse embryonic stem cells (ESs) were maintained and differentiated, and the absence of mycoplasma contamination was confirmed prior to experimental studies. Briefly, mouse ESs from both WT and Dsg2^mut/mut mice were derived from E3.5 embryos and maintained on gelatin-coated dishes in maintenance medium (Glasgow minimum essential medium supplemented with 10% fetal bovine serum and 3 μM Chir99021 and 1 μM PD98059 or 1000 U/ml ESGRO; Millipore), Glutamax, sodium pyruvate, and MEM non-essential amino acids (Thermo Fisher Scientific). […]
All myocardium (sedentary and exercised mouse cohorts and patient myocardial biopsies) were formalin-fixed and paraffin-embedded (FFPE). […] Following three additional washes, ProLong Gold Antifade Mountant with DAPI (Thermofisher, 936931) were applied, and slides were coverslipped, and immunoreactive signal was detected via laser scanning microscopy (Zeiss LSM 510 Meta). […]
Following immunostaining, AIF-fluorescence and nuclear fluorescence (DAPI) were detected via laser scanning microscopy (Zeiss LSM 510 Meta) via a sequential fashion to avoid crosstalk between fluorophores. Merged images were obtained using Zeiss LSM software, and approximately 3-10 Regions of Interest (ROIs) were assessed per condition (mouse myocardium and patient myocardial biopsies). […]

Dsg2^mut/mut ES-CMs = assay: FACS analysis of apoptosis (AnnexinV/propidium iodide) in ISO/Ca2+-treated ES-CMs; assay type: cell-based, mouse; conditions: 7 days, 5 μM or 25 μM peptide
Method: Mouse embryonic stem cells (ESs) were maintained and differentiated, and the absence of mycoplasma contamination was confirmed prior to experimental studies. Briefly, mouse ESs from both WT and Dsg2^mut/mut mice were derived from E3.5 embryos and maintained on gelatin-coated dishes in maintenance medium (Glasgow minimum essential medium supplemented with 10% fetal bovine serum and 3 μM Chir99021 and 1 μM PD98059 or 1000 U/ml ESGRO; Millipore), Glutamax, sodium pyruvate, and MEM non-essential amino acids (Thermo Fisher Scientific). For cardiomyocyte (CM) differentiation, ESs were plated in IMDM/Ham's F12 (Cellgro, at 3:1) supplemented with N2, B27, penicillin/streptomycin, 2 mM GlutaMAX, 0.05% BSA, 5 ng/ml L-ascorbic acid (Sigma-Aldrich), and α-monothioglycerol (MTG; Sigma-Aldrich) at a final density of 100,000 cells/ml to allow spheroid formation. After 48 hours, embryoid bodies were collected and transferred to ultra-low attachment plastic surface and induced for 40 hours with Activin A and Bmp4 (R&D Systems). Cells were then dissociated and plated as monolayers for 48 hours in the presence of 10 μM XAV to allow cardiomyocyte differentiation. […] (4) After 7 days of treatment, ES-CMs were stained with AnnexinV in a buffer containing 10 mM HEPES (pH 7.4), 140 mM NaCl, 2.5 mM CaCl2, followed by the addition of 1 mg/ml propidium iodide and analyzed by flow cytometry.

HT-22 cells = conditions: cited from earlier work

Sequence of PPIA (P62937 whole entry, species assumed): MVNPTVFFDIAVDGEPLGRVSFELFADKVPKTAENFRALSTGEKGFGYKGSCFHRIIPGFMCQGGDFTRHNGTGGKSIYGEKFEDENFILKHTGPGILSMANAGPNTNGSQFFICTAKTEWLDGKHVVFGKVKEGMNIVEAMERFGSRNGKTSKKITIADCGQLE

Row | Substance | Kd (PPIA) [µM] | increased cytosolic and decreased nuclear HMGB1 levels (HMGB1) | PPIA-mediated nuclear import of tAIF (immunoblot) (tAIF) | tAIF nuclear localization (immunostaining) (tAIF) | apoptosis (FACS) (Dsg2^mut/mut ES-CMs) | neuroprotective effects in HT-22 cells during the oxidative stress (HT-22 cells)
1 | NH2-GRKKRRQRRR(βAla)QSVGVSSGKLLIKLKDGRKVETDHI-NH2 (GRKKRRQRRRAQSVGVSSGKLLIKLKDGRKVETDHI; C-terminal amide; MOD_RES (11)..(11) 1,2-dihydro-3(6h)-pyridinone beta-alanine) [TAT-AIF (370-394), Linear peptide, 38 amino acids long, N-terminal TAT fragment for cell uptake] | 12 | prevented | precluded | precluded | attenuated | 
2 | Ac-CIKLKDGRKVC-NH2 [AIF (381-389) ox, Cyclic peptide, 11 amino acids long] |  |  |  |  |  | provides neuroprotective
